Results published in PubChem BioAssay AID248 (DTP/NCI, 2004).
Toxic doses and inconclusive results are not listed. No stated cut-off is given here; in the data, active means T/C of 150% or more; inactive means T/C below 125%.

Tested on: L1210 leukemia ip in BDF1 mice, survival T/C
Assay: NCI In Vivo Anticancer Drug Screen. Data for tumor model L1210 Leukemia (intraperitoneal) in B6D2F1 (BDF1) mice
Settings: endpoint: mean survival time, higher = longer survival
Outline: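 Tumor cells were implanted, animals were treated, and survival was followed. The result divides the treated measurement by the vehicle-control measurement.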

[1] = dose: 100.0 mg/kg/injection, schedule: Q04DX002 (ip), vehicle: Klucel (hydroxypropylcellulose) (HPC)
[2] = dose: 100.0 mg/kg/injection, schedule: Q04DX003 (ip), vehicle: Klucel (hydroxypropylcellulose) (HPC)
[3] = dose: 200.0 mg/kg/injection, schedule: Q04DX003 (ip), vehicle: Klucel (hydroxypropylcellulose) (HPC)
[4] = dose: 400.0 mg/kg/injection, schedule: Q04DX003 (ip), vehicle: Klucel (hydroxypropylcellulose) (HPC)

Measured: T/C

Cc1c2oc3c(C)ccc(C(=O)NC4C(=O)NC(C(C)C)C(=O)N5CCCC5C(=O)N(C)CC(=O)N(C)C(C(C)C)C(=O)OC4C)c3nc-2c(C(=O)NC2C(=O)NC(C(C)C)C(=O)N3CCCC3C(=O)N(C)CC(=O)N(C)C(C(C)C)C(=O)OC2C)cc1=O (stereo not given)
inactive: dose: 0.1 mg/kg/injection, schedule: Q01DX009 (ip), vehicle: saline + alcohol 101 % of control | dose: 0.2 mg/kg/injection, schedule: Q01DX001 (ip), vehicle: saline + alcohol 102 % of control | dose: 0.2 mg/kg/injection, schedule: Q01DX009 (ip), vehicle: saline + alcohol 107 % of control | dose: 0.25 mg/kg/injection, schedule: Q01DX009 (ip), vehicle: saline + alcohol 101 % of control | dose: 0.4 mg/kg/injection, schedule: Q01DX001 (ip), vehicle: saline + alcohol 104 % of control | dose: 0.4 mg/kg/injection, schedule: Q01DX009 (ip), vehicle: saline + alcohol 112 % of control | dose: 0.5 mg/kg/injection, schedule: Q01DX009 (ip), vehicle: saline + alcohol 97 % of control | dose: 0.6 mg/kg/injection, schedule: Q04DX003 (ip), vehicle: saline + alcohol 101 % of control | dose: 0.8 mg/kg/injection, schedule: Q01DX001 (ip), vehicle: saline + alcohol 104 % of control | dose: 1.0 mg/kg/injection, schedule: Q01DX009 (ip), vehicle: saline + alcohol 93 % of control | dose: 1.2 mg/kg/injection, schedule: Q04DX003 (ip), vehicle: saline + alcohol 109 % of control | dose: 1.25 mg/kg/injection, schedule: Q04DX003 (ip), vehicle: saline + alcohol 96 % of control | dose: 1.6 mg/kg/injection, schedule: Q01DX001 (ip), vehicle: saline + alcohol 106 % of control | dose: 2.0 mg/kg/injection, schedule: Q01DX009 (ip), vehicle: saline + alcohol 106 % of control | dose: 2.4 mg/kg/injection, schedule: Q04DX003 (ip), vehicle: saline + alcohol 119 % of control | dose: 2.5 mg/kg/injection, schedule: Q04DX003 (ip), vehicle: saline + alcohol 97 % of control | dose: 3.2 mg/kg/injection, schedule: Q01DX001 (ip), vehicle: saline + alcohol 111 % of control | dose: 4.0 mg/kg/injection, schedule: Q01DX009 (ip), vehicle: saline + alcohol 103 % of control | dose: 5.0 mg/kg/injection, schedule: Q04DX003 (ip), vehicle: saline + alcohol 105 % of control | dose: 6.4 mg/kg/injection, schedule: Q01DX001 (ip), vehicle: saline + alcohol 117 % of control | dose: 10.0 mg/kg/injection, schedule: Q04DX003 (ip), vehicle: saline + alcohol 106 % of control | dose: 20.0 mg/kg/injection, schedule: Q04DX003 (ip), vehicle: saline + alcohol 116 % of control | dose: 12.5 micrograms/kg/injection, schedule: Q01DX009 (ip), vehicle: saline + alcohol 101 % of control | dose: 50.0 micrograms/kg/injection, schedule: Q01DX009 (ip), vehicle: saline + alcohol 103 % of control | dose: 75.0 micrograms/kg/injection, schedule: Q04DX003 (ip), vehicle: saline + alcohol 104 % of control | dose: 150.0 micrograms/kg/injection, schedule: Q04DX003 (ip), vehicle: saline + alcohol 102 % of control | dose: 300.0 micrograms/kg/injection, schedule: Q04DX003 (ip), vehicle: saline + alcohol 106 % of control

O=C(/C=C/c1ccccc1)OCc1ccccc1CN1C=CON1
inactive: dose: 25.0 mg/kg/injection, schedule: Q04DX002 (ip), vehicle: Klucel (hydroxypropylcellulose) (HPC) 115 % of control | dose: 50.0 mg/kg/injection, schedule: Q04DX002 (ip), vehicle: Klucel (hydroxypropylcellulose) (HPC) 105 % of control | [1] 105 % of control

O=c1ccn(C2CCCO2)c(=O)[nH]1 (stereo not given)
inactive: dose: 50.0 mg/kg/injection, schedule: Q01DX001 (ip), vehicle: saline 105 % of control | dose: 100.0 mg/kg/injection, schedule: Q01DX001 (ip), vehicle: saline 109 % of control | dose: 200.0 mg/kg/injection, schedule: Q01DX001 (ip), vehicle: saline 100 % of control | dose: 400.0 mg/kg/injection, schedule: Q01DX001 (ip), vehicle: saline 103 % of control

COC(=O)c1ccccc1C(=O)Nc1cc(C(F)(F)F)ccc1Cl
inactive: dose: 100.0 mg/kg/injection, schedule: Q01DX009 (ip), vehicle: Klucel (hydroxypropylcellulose) (HPC) 100 % of control | dose: 200.0 mg/kg/injection, schedule: Q01DX009 (ip), vehicle: Klucel (hydroxypropylcellulose) (HPC) 103 % of control | dose: 400.0 mg/kg/injection, schedule: Q01DX009 (ip), vehicle: Klucel (hydroxypropylcellulose) (HPC) 100 % of control

NC(=O)NCCc1ccccc1
inactive: [2] 102 % of control | [3] 97 % of control | [4] 102 % of control

CC(C)(C)NS(=O)(=O)/C=C/c1ccccc1
inactive: dose: 50.0 mg/kg/injection, schedule: Q01DX009 (ip), vehicle: acetone 95 % of control | dose: 100.0 mg/kg/injection, schedule: Q01DX001 (ip), vehicle: acetone 101 % of control | dose: 100.0 mg/kg/injection, schedule: Q01DX009 (ip), vehicle: acetone 93 % of control | dose: 200.0 mg/kg/injection, schedule: Q01DX001 (ip), vehicle: acetone 102 % of control | dose: 200.0 mg/kg/injection, schedule: Q01DX009 (ip), vehicle: acetone 92 % of control | dose: 400.0 mg/kg/injection, schedule: Q01DX001 (ip), vehicle: acetone 96 % of control

COc1cc(C)c2ccc3ccccc3c2n1
inactive: dose: 100.0 mg/kg/injection, schedule: Q01DX001 (ip), vehicle: other 93 % of control | dose: 200.0 mg/kg/injection, schedule: Q01DX001 (ip), vehicle: other 95 % of control | dose: 400.0 mg/kg/injection, schedule: Q01DX001 (ip), vehicle: other 97 % of control

Cc1ccc(C(=O)OCC2OC(OC3CC(OC(=O)c4ccc(C)cc4)C(COC(=O)c4ccc(C)cc4)O3)CC2OC(=O)c2ccc(C)cc2)cc1 (stereo not given)
inactive: dose: 50.0 mg/kg/injection, schedule: Q01DX001 (ip), vehicle: carboxymethylcellulose (CMC) 101 % of control | dose: 100.0 mg/kg/injection, schedule: Q01DX001 (ip), vehicle: carboxymethylcellulose (CMC) 87 % of control | dose: 200.0 mg/kg/injection, schedule: Q01DX001 (ip), vehicle: carboxymethylcellulose (CMC) 101 % of control | dose: 400.0 mg/kg/injection, schedule: Q01DX001 (ip), vehicle: carboxymethylcellulose (CMC) 97 % of control

CCOC(=O)C(CC1CCCCC1)(NC(C)=O)C(=O)OCC
inactive: dose: 75.0 mg/kg/injection, schedule: Q04DX003 (ip), vehicle: saline 96 % of control | dose: 150.0 mg/kg/injection, schedule: Q04DX003 (ip), vehicle: saline 104 % of control | dose: 300.0 mg/kg/injection, schedule: Q04DX003 (ip), vehicle: saline 100 % of control

Cc1nc(-c2ccccc2)cc(=O)o1
inactive: [2] 102 % of control | [3] 102 % of control | [4] 98 % of control

COC(=O)C(F)C(Br)C(=O)OC (stereo not given)
inactive: dose: 3.12 mg/kg/injection, schedule: Q01DX009 (ip), vehicle: saline with Tween-80 114 % of control | dose: 6.25 mg/kg/injection, schedule: Q01DX009 (ip), vehicle: saline with Tween-80 101 % of control | dose: 12.5 mg/kg/injection, schedule: Q01DX009 (ip), vehicle: saline with Tween-80 103 % of control | dose: 25.0 mg/kg/injection, schedule: Q01DX009 (ip), vehicle: saline with Tween-80 97 % of control | dose: 50.0 mg/kg/injection, schedule: Q01DX009 (ip), vehicle: saline with Tween-80 101 % of control

CCOc1ccc(N=Nc2ccc(N)cc2N)cc1
inactive: [1] 96 % of control | dose: 200.0 mg/kg/injection, schedule: Q04DX002 (ip), vehicle: Klucel (hydroxypropylcellulose) (HPC) 101 % of control | dose: 400.0 mg/kg/injection, schedule: Q04DX002 (ip), vehicle: Klucel (hydroxypropylcellulose) (HPC) 96 % of control

OCC1OC(n2ncc3ccccc32)C(O)C1O (stereo not given)
inactive: dose: 50.0 mg/kg/injection, schedule: Q01DX005 (ip), vehicle: other 109 % of control | dose: 100.0 mg/kg/injection, schedule: Q01DX005 (ip), vehicle: other 105 % of control | dose: 200.0 mg/kg/injection, schedule: Q01DX005 (ip), vehicle: other 98 % of control
